Assay results: US20260199273A1, “Compounds for the Treatment of Neuromuscular Disorders” (NMD PHARMA A/S, priority 2022, published 2026)

How the values were obtained:
[1] = system: isolated rat soleus nerve-muscle preparations; test: Measurement of force in an in vitro model: recovery of nerve-stimulated contractile force after tubocurarine; conditions: 40 min, 10 μM of test compound, after 40 mins of compound exposure, tubocurarine (115 nM) for 90 minutes, read-out: Point increase (%): percentage increase of initial force that was restored
Method in brief: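 Isolated soleus nerve-muscle preparations from 4-5 week old rats, nerve-stimulated in Krebs Ringer at 30° C, 95% O2/5% CO2, pH ~7.4. Force reduced with 115 nM tubocurarine for 90 min, then compound added. Value is percentage-point increase in initial force restored after 40 min compound exposure.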

CIC-1 ion channel = target: T1, CIC-1 ion channel (Rattus norvegicus, UniProt P35524); test: Electrophysiological measurement of compound inhibition of CIC-1 in rat muscle (Gm in soleus fibres, three micro-electrodes); assay type: cell-based; conditions: Gm in individual fibres of whole rat soleus muscles, approx. 30° C., four increasing compound concentrations; read-out: Potency Range (EC50, inhibition of CIC-1 ion channel)
T1 construct: from tissue; host or cells: whole soleus muscle of 12-14 week old Wistar rats
T1 sequence (P35524 1-994): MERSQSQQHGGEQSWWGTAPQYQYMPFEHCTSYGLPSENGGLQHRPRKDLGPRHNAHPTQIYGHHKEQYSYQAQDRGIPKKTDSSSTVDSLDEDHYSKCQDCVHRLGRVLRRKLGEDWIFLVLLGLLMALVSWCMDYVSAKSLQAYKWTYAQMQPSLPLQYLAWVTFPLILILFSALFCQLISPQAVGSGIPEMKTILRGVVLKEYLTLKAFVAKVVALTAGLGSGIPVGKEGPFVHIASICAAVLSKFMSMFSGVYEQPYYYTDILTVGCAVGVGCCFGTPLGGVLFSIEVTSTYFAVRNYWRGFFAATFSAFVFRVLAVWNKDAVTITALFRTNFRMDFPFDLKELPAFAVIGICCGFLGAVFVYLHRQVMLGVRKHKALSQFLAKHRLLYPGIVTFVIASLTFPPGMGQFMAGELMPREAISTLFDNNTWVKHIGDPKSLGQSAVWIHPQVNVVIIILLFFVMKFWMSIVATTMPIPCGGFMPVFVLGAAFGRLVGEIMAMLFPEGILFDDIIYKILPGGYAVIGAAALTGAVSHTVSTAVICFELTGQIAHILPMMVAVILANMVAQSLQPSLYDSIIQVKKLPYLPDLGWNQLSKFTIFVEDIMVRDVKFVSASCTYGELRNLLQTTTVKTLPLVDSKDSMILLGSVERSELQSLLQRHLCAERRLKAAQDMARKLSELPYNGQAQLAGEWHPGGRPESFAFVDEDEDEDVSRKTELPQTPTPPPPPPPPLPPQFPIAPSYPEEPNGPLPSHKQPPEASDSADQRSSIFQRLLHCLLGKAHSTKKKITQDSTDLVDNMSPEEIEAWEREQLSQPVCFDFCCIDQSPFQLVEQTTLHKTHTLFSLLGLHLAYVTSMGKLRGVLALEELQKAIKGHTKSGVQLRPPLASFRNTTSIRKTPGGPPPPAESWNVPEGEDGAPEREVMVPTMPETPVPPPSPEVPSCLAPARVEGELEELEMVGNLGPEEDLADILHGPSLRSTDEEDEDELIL
Method in brief: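 Membrane conductance (Gm) recorded by three micro-electrodes in soleus fibres of intact muscles from 12-14 week old Wistar rats, Krebs Ringer, ~30° C, pH ~7.4; 50 ms −30 nA pulses, Gm from cable-theory fit. Control Gm in 10 fibres, then four rising concentrations (5-10 fibres each); EC50 by sigmoidal fit.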

| SMILES | EC50 (CIC-1 ion channel) [nM] | activation at 10 µM [1] [%] |
| --- | --- | --- |
| O=C(O)c1c(F)c(Cl)cc2c1CCCS2 [Compound A-65, 7-chloro-6-fluoro-3,4-dihydro-2H-1-benzothiopyran-5-carboxylic acid] | 200 to 2000 | 49 |
| O=C(O)c1c(F)c(Cl)cc2c1N(Cc1ccccc1)CCC2 [Compound A-71, 1-Benzyl-6-chloro-7-fluoro-1,2,3,4-tetrahydro-8-quinolinecarboxylic acid] | 200 to 2000 | 23 |
| O=C(O)c1c(F)c(Cl)cc2c1N(Cc1ccc(F)cc1)CCC2 [Compound A-72, 6-Chloro-7-fluoro-1-[(p-fluorophenyl)methyl]-1,2,3,4-tetrahydro-8-quinolinecarboxylic acid] | 200 to 2000 | 20 |
| O=C(O)c1c(Cl)c(F)cc2c1N(Cc1ccccc1)CCC2 [Compound A-74, 1-Benzyl-7-chloro-6-fluoro-1,2,3,4-tetrahydro-8-quinolinecarboxylic acid] | 200 to 2000 | 11 |

Further lines, with some results ahead:

| EC50 (CIC-1 ion channel) [nM] | SMILES | activation at 10 µM [1] [%] |
| --- | --- | --- |
| 200 to 2000 | COc1c(Cl)cc2c(c1C(=O)O)OCCC2 [Compound A-69, 6-Chloro-7-methoxy-3,4-dihydro-2H-1-benzopyran-8-carboxylic acid] | 55 |
| 200 to 2000 | O=C(O)c1c(F)c(Cl)cc2c1N(Cc1ccsc1)CCC2 [Compound A-70, 6-Chloro-7-fluoro-1-[(3-thienyl)methyl]-1,2,3,4-tetrahydro-8-quinolinecarboxylic acid] | 25 |
| 200 to 2000 | COc1c(Cl)cc2c(c1C(=O)O)CCCC2(F)F [Compound A-73, 3-Chloro-5,5-difluoro-2-methoxy-5,6,7,8-tetrahydro-1-naphthoic acid] | 23 |
